From ChEMBL document CHEMBL1123942, “Effect of acyclic pyrimidines related to 9-[(1,3-dihydroxy-2-propoxy)methyl]guanine on herpesviruses” (J Med Chem, 1988)

Columns and labels:
Cytomegalovirus [1] = assay: Inhibition of growth of human cytomegalovirus (HCMV) was determined by plaque reduction assay in human lung fibroblast cell line; format: functional, organism-based; settings: Human betaherpesvirus 5, Fibroblast
Human alphaherpesvirus 3 = assay: Inhibition of growth of varicella zoster virus(VZV) by plaque reduction assay in vero cell line; format: functional, organism-based; settings: Human alphaherpesvirus 3, Vero
Human alphaherpesvirus 1 [2] = assay: (§1) Inhibition of growth of herpes simplex virus (HSV-1) by plaque reduction assay in vero cell line; format: functional, organism-based; settings: Human alphaherpesvirus 1, Vero
Cytomegalovirus [3] = assay: Inhibition of growth of human cytomegalovirus (HCMV) by plaque reduction assay in human lung fibroblast cell line; format: functional, organism-based; settings: Human betaherpesvirus 5, Fibroblast
Human alphaherpesvirus 2 = assay: Inhibition of growth of herpes simplex virus (HSV-2) by plaque reduction assay in vero cell line; format: functional, organism-based; settings: Human alphaherpesvirus 2, Vero
Cytomegalovirus [4] = assay: Inhibition of growth of human cytomegalovirus (HCMV) was determined by plaque reduction assay in human foreskin fibroblast cell line; format: functional, organism-based; settings: Human betaherpesvirus 5, Fibroblast
Cytomegalovirus [5] = assay: Inhibition of growth of human cytomegalovirus (HCMV) was determined by plaque reduction assay in Detroit cells; format: functional, organism-based; settings: Human betaherpesvirus 5, Detroit
Human alphaherpesvirus 1 [6] = assay: as §1; format: functional, organism-based, herpes simplex vir; settings: Human alphaherpesvirus 1, Vero

SMILES | IC50 (Cytomegalovirus [1]) | IC50 (Human alphaherpesvirus 3) | further results
Nc1nc(=O)n(COC(CO)CO)cc1F | 100 µM |  | 
CN(C)c1ccn(COC(CO)CO)c(=O)n1 | > 100 µM | > 100 µM | IC50 (Human alphaherpesvirus 1 [2]): > 100 µM
Nc1ccn(COC(CO)CO)c(=S)n1 | > 100 µM |  | 
Nc1nc(=O)n(COC(CO)CO)cc1I | > 100 µM | > 100 µM | 
COC(=O)CC(CC(=O)OC)OC[n+]1ccc(N)nc1 | > 100 µM |  | 
Cc1cn(COC(CO)CO)c(=O)[nH]c1=O | > 250 µM | > 100 µM | 
Cc1cn(COC(CO)CO)c(=O)nc1N | > 100 µM | > 100 µM | 
Nc1cn(COC(CO)CO)c(=O)[nH]c1=O |  | > 100 µM | 
CNc1ccn(COC(CO)CO)c(=O)n1 | > 100 µM |  | 
Nc1ccn(COC(CO)CO)c(=O)n1 |  | 17.1 µM | IC50 (Human alphaherpesvirus 1 [2]): 140 µM; IC50 (Cytomegalovirus [3]): 11.2 µM; IC50 (Human alphaherpesvirus 2): 50 µM
O=c1[nH]c(=O)n(COC(CO)CO)cc1Br | > 100 µM | > 100 µM | 
O=c1ccn(COC(CO)CO)c(=O)[nH]1 | > 250 µM | > 100 µM | 
Nc1ncn(COC(CO)CO)c(=O)n1 | 100 µM |  | IC50 (Cytomegalovirus [4]): > 25 µM; IC50 (Human alphaherpesvirus 2): > 100 µM
Nc1nc(=O)ccn1COC(CO)CO | > 100 µM |  | 
Nc1nc2c(ncn2COC(CO)CO)c(=O)[nH]1 [GANCICLOVIR] | 3.4 µM | 2.8 µM | IC50 (Human alphaherpesvirus 1 [2]): 0.1 µM; IC50 (Human alphaherpesvirus 2): 0.1 µM
O=c1[nH]c(=O)n(COC(CO)CO)cc1I [IODACYCLUR] |  | > 100 µM | IC50 (Cytomegalovirus [5]): > 100 µM; IC50 (Human alphaherpesvirus 1 [6]): > 100 µM
